Test results published in publication PMC6161179, “Looking for Novel Capsid Protein Multimerization Inhibitors of Feline Immunodeficiency Virus” (Pharmaceuticals, 2018).
Read-outs that look alike come from different tables or passages of the source.

Columns and labels:
FIV CA (p24) [1] = molecular target: T1, FIV CA (p24) (Feline immunodeficiency virus, UniProt P16087); test: Microscale thermophoresis (MST) binding to CA
T1 construct: The FIV CA protein was expressed and purified mostly as described; made in house; host or cells: Escherichia coli BL21(DE3) pLysS
Procedure: The major disadvantage of this method is the interference of the compound with the measurement, either by autofluorescence or quenching.
We explored the binding affinity at two different times (10 and 60 min) to enhance the poetical interactions.
MTS experiments were performed according to the NanoTemper technologies protocol in a Monolith NT.115 (green/blue) instrument (NanoTemper Technologies, München, Germany). With this technique, the diffusion behavior of a labeled protein is measured when an infrared light excites the movement of the protein in capillaries. This behavior is the combination of two effects: the fast, local environment dependent responses of the fluorophore to the temperature jump and the slower diffusive thermophoresis fluorescence changes. It will be modified when the protein is complexed with increasing amounts of unlabeled partners, leading to titration curves that can be fit for Kd estimation. In practice, CA was labeled with the Monolith His-Tag Labeling Kit RED-tris-NTA (NanoTemper Technologies, München, Germany), as described by the manufacturer. The experiments were performed using 20% and 40% MST power and between 20–80% LED power at 24 °C. The MST traces were recorded using the standard parameters: 5 s MST power off, 30 s MST power on, and 5 s MST power off. The compounds were used at high concentrations (around 5 mM) in the bindings check assay with DMSO at 5% v/v. If the binding check was positive, then the affinity determination was performed with the same experimental settings, with serial 2× dilutions of the compound of interest.

Vero cell lines = test: MTT cytotoxicity assay in Vero cells; format: cell-based; settings: compound at 100µM, 48 h
Procedure: (§1) Vero cell lines (ATCC, Rockville, MD, USA) were cultivated in Dulbecco’s modified Eagles medium (DMEM) with 10% FCS in a humid atmosphere of 5% CO2 at 37 °C. Vero cells were seeded in 96-well plates at an initial density of 5 × 10^3 cells per well. J774.1 murine macrophage cells (ATCC, Manassas, VA, USA) were grown in DMEM culture milieu containing 4 mM L-glutamine and supplemented with 10% FCS. The cells were seeded in a 96-well plate (5 × 10^4 cells in 200 µL culture medium) and incubated at 37 °C in a 5% CO2 atmosphere for 48 h, to allow cell adhesion prior to drug testing. Both cell lines were exposed for 48 h (at 37 °C and 5% CO2) to the compounds (100 µM) or the solvent (0.4% DMSO) for the control, and additional controls (cells in medium) were used in each test. The cytotoxicity of the compounds was evaluated by MTT reduction assays. To proceed with the MTT assay, 20 μL of 3-(4,5-dimethylthiazol-2-yl)-2,5-diphenyl-2H-tetrazolium bromide (MTT) 5 mg/mL solution dissolved in 1× PBS was added to the wells and incubated for 4 h at 37 °C in a 5% CO2 controlled atmosphere. Next, the medium was aspirated and 100 μL of DMSO was added to each well and incubated at room temperature in the dark for 15 min with moderate orbital shaking. Optical density (OD) was read in a plate spectrophotometer (Thermo Scientific Varioskan® Flash Multimode, Waltham, MA, USA) at 570 and 690 nm wavelengths. Each experiment was performed in triplicate. For the statistical analyses, the GraphPad Prism 6 was used. Dunnett’s multiple comparison tests and Student’s T-test were used when we compared the averages of each condition with the control.

[2] = test system: five different enzymes from pathogen parasites; parameters: method as in PMID 20889239, PMID 28481276; settings: at 100 µM; cited from earlier work
FIV CA (p24) [3] = molecular target: T1, FIV CA (p24); test: In vitro CA assembly assay (spectrophotometry / light scattering); format: biochemical; settings: re-validated by light scattering and spectrophotometry; compounds at 25 or 50 µM
Procedure: Indeed, our initial assay used light scattering and could only monitor the assembly of one sample per experiment on 40 min kinetics. […] The use of the spectrometric technique to follow capsid assembly has been described for HIV [24] and is based on the detection of capsid assembly via the measurement of the increase of medium turbidity. The use of this technique to monitor FIV p24 assembly allowed us to use 384-well plates, reducing the volume of protein to 15 µL per sample and allowing a testing of 10 compounds, in duplicate, in 40 min. Moreover, in this format, the protein concentration (5 mg/mL) was enough to start the assembly without needing the high concentration of salt used in the HIV in vitro assembly assay. High salt concentration could cause a problem by interfering with the solvation and solubility of some molecules and the loss of their interaction with the target. The only limitation of this method using low volumes was the risk of introducing air bubbles in the reaction, which interfere negatively in the absorbance measurement. However, this issue was solved by a careful manipulation in the filling process of the plates.
With this spectrometric assembly assay, we were able to discriminate two different behaviors for compounds interfering with the assembly of FIV CA: the enhancement of the assembly or its inhibition. The enhancement of assembly is associated with an increase of the diameter of the assembled objects and could result in a disordered or altered capsid with a loss of function. Inhibition is the classical effect which would impair the formation of the capsid (Figure 3).
High nitrogen content heretocycles were not a good source of bioactive molecules. Some compounds with structural similarities with Bevirimat were also active, like some steroid compounds clustered in diverse families. […] We could not find active molecules in four families (i.e., selenium containing compounds, flavones, triazines, and indazoles).
The CA assembly assay was performed in a final volume of 50 μL in 384-well plates, with a final concentration of 5 mg/mL of purified recombinant FIV […] in 50 mM NaH2PO4 and 1 M NaCl, pH 7.4. Absorbance is measured at 340 nm every 30 s in a multiplate reader Varioskan^TM Flash Multimode Reader (Thermo Scientific^TM, Waltham, MA, USA) at 38 °C for 30 min. The compounds were tested at a fixed initial dose of 25 or 50 μM (at 0.5% DMSO v/v) by adding 1 µL of the concentrated ligand were added to the well before starting the measurement. The controls were CA at 5 mg/mL in only 0.5% DMSO v/v and CA without DMSO. The criteria to select active compounds were the observation of at least 50% of assembly inhibition at these doses, based on the reduction of the OD value at 340 nm at the plateau value compared to the controls.

[4] = test system: J774.1 murine macrophage cells; test: MTT cytotoxicity assay in J774.1 murine macrophages; format: cell-based; settings: compound at 100µM, 48 h
Procedure: as §1

murine macrophages = test system: murine macrophages; parameters: method as in PMID 28481276; settings: read-out: cytotoxicity IC50; cited from earlier work
[5] = test system: murine acute infection model of the Chagas disease; parameters: method as in PMID 26492824; settings: 100 mg/kg body for 15 days; cited from earlier work
HIV-1 = test system: HIV-1; parameters: method as in PMID 12662926; settings: at 100 µM; cited from earlier work
HIV-1 capsid protein = test system: HIV-1 capsid protein; parameters: method as in PMID 12662926; settings: read-out: EC50 (affinity); cited from earlier work
[6] = 1 h (60 min), read-out: 1h EC50

T1 sequence (P16087 136-357): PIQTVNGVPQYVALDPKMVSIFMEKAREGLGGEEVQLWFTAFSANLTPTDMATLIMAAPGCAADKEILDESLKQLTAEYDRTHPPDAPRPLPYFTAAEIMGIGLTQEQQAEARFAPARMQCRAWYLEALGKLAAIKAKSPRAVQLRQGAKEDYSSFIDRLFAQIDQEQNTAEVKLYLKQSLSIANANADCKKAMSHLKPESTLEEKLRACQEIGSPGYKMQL

SMILES	EC50 (FIV CA (p24) [1]; 10 min, read-out: 10 min EC50)	EC50 (FIV CA (p24) [1]; [6])	VERO (grown %) (Vero cell lines)	inhibitory effects [2]	inhibition of the assembly (FIV CA (p24) [3])	Murine macrophages (grown %) [4]	other results
Nc1ccc(S(=O)(=O)c2ccc(Nc3c([N+](=O)[O-])c(Nc4ccc(S(=O)(=O)c5ccc(N)cc5)cc4)c4no[n+]([O-])c4c3[N+](=O)[O-])cc2)cc1 [compound 703]	320 µM	720 µM					
O=C(O)c1cs/c(=N/N=C/C=C/C=C/c2cccs2)n1-c1ccccc1 [compound 1136]	212 µM	83 µM	100±9%	did not display inhibitory effects	inhibition of the assembly	95±7%	
O=C1/C(=C/C=C/c2ccccc2)CC/C1=C\C=C\c1ccccc1 [compound 1246]	390 µM	239 µM	89±5%	did not display inhibitory effects	inhibition of the assembly	79±9%	IC50 (murine macrophages): > 100 µM; toxic effect [5]: without toxic effect
C=CCNC(=S)N/N=C/c1ccc2c(c1)c1cc(/C=N/NC(=S)NCC=C)ccc1n2CC(CC)CCCC (centres unmarked) [compound 1368]		35 µM					
O=C1C(=Cc2ccc([N+](=O)[O-])cc2)C(=O)N(CCc2ccccc2)S(=O)(=O)N1CCc1ccccc1 [compound 110]	1100 µM	789 µM					
CC(/C=N/N1CCSCC1)=C\c1ccco1 [compound 878]	119 µM	166 µM	100±8%	did not display inhibitory effects	inhibition of the assembly	98±8%	IC50 (murine macrophages): > 100 µM; EC50 (FIV CA (p24) [1]; 1 h (60 min), Figure 5 panel A, read-out: 1h EC50): 166 µM
C=CCn1c(C)cs\c1=N/N=C/C=C/c1cccs1 [compound 1128]	322 µM	484 µM					
C=CCN1C(=O)CS\C1=N/N=C/C=C/c1cccs1 [compound 1138]	242 µM	180 µM					
Cc1ccc(NC(=O)NCCSCc2ccc(CN(C)C)o2)cc1Cl [CAP-1]							activity in the in vitro infection assay (HIV-1): active; EC50 (HIV-1 capsid protein): 60 µM
C=CCn1c(C(=O)O)cs/c1=N\N=C\c1ccc(/C=N/N=c2\scc(C(=O)O)n2CC=C)cc1 [compound 1310]	655 µM	670 µM	95±7%	did not display inhibitory effects	inhibition of the assembly	98±7%	
C=CCn1c(C(=O)O)cs\c1=N/N=C/C=C/c1ccc(C)o1 [compound 789]	640 µM	655 µM					
